The record followed here is PMC5461267, “Membrane Guanylate Cyclase catalytic Subdomain: Structure and Linkage with Calcium Sensors and Bicarbonate” (Frontiers in Molecular Neuroscience, 2017).

Test [1] addresses T1, ROS-GC1 (rod outer segment guanylate cyclase type 1), full-length recombinant (Bos taurus, UniProt P55203, A1013R).
T1 construct: gene GUCY2D
T1 sequence (P55203 57-1110 A1013R): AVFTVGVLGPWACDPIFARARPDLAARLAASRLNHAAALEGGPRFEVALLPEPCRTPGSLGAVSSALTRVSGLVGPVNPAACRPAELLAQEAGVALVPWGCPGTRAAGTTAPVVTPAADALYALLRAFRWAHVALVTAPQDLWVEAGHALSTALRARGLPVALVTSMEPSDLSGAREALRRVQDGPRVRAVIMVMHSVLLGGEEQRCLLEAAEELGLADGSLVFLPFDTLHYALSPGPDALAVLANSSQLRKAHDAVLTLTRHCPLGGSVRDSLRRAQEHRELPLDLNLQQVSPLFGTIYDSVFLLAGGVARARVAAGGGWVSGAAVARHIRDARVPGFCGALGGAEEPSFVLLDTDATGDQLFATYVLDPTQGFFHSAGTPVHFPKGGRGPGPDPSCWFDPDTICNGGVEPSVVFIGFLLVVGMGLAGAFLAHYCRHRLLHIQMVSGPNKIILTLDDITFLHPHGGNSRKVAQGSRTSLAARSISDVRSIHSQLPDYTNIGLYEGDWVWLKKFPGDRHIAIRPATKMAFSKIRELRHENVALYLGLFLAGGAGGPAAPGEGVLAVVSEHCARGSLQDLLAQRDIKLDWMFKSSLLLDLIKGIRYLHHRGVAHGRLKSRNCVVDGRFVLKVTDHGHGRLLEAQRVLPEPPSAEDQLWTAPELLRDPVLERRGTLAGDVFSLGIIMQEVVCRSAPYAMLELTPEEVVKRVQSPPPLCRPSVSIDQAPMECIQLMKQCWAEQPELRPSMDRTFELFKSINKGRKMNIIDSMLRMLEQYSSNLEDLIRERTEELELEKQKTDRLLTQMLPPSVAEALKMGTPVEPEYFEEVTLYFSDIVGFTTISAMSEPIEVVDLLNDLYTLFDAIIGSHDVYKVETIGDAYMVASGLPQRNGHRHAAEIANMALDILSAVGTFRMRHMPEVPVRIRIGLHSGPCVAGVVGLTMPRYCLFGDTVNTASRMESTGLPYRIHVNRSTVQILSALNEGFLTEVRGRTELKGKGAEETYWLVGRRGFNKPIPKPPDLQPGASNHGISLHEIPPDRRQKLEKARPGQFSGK
Nature of the test: biochemical.

The target in test [2] is T2, ROS-GC1 (rod outer segment guanylate cyclase type 1), full-length recombinant (Bos taurus, UniProt P55203, A1013R/D934A).
T2 construct: gene GUCY2D
T2 sequence (P55203 57-1110 D934A/A1013R): T1 sequence (P55203 57-1110 A1013R) with D878A
Description: biochemical.

Residue numbers refer to the chain shown, from its start.

For orientation: EC50 means the concentration needed to bring the measured effect to its halfway point. `O=C(O)O` [bicarbonate]: the 50% effective concentration (EC50) in test [1] is 25 mM; in test [2], roughly 30 mM.
